Results published in US20200392150A1, “Diaryl-B-Lactam Compound and Preparation Method and Pharmaceutical Use Thereof” (Fudan University, priority 2016, published 2020).

Experiments:
Type in all cases: cell-based, human
tubulin in SKOV-3 cells = experiment: Immunofluorescent analysis of tubulin morphology; conditions: 24 h
Method: After treatment with diluent (0.2% DMSO) or tested compounds at indicated concentrations for 24 h, SKOV-3 cells were fixed with methanol, permeabilized with 0.1% Triton X-100 in PBS and blocked by goat serum. Then the cells were incubated with a-tubulin antibody at 4° C. overnight, followed by incubation with Alexa 488 labeled secondary antibody (Jackson ImmunoResearch) at RT for 1 h. After being stained with DAPI, cells were examined and photographed with a Leica SP5 co-focal fluorescence microscope.

MDA-MB-231 = experiment: In vitro cell growth inhibition assay (MTT); conditions: MDA-MB-231 human breast cancer cell line, 48 h, MTT; read-out: IC50 MDA-MB-231
Procedure, shortened: (§1)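 IC50 values come from growth inhibition rates calculated from MTT absorbance at 540 nm. Compound exposure lasted 48 h on cells plated at 5000 per well.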

SKOV3 = experiment: In vitro cell growth inhibition assay (MTT); conditions: SK-OV-3; SKOV-3 human ovarian cancer cell line, 48 h, MTT; read-out: IC50 SKOV3
Procedure, shortened: as §1

Hela = experiment: In vitro cell growth inhibition assay (MTT); conditions: Hela human cervical cancer cell line, 48 h, MTT; read-out: IC50 Hela
Procedure, shortened: as §1

A2780 = experiment: In vitro cell growth inhibition assay (MTT); conditions: A2780 human ovarian cancer cell line, 48 h, MTT; read-out: IC50 A2780
Procedure, shortened: as §1

tubulin in Hela cells = experiment: Immunoblotting analysis of polymerized/depolymerized tubulin; conditions: 6 h
Method: After being treated with diluent (0.2% DMSO), tested compound, CA-4 or PTX for 6 h, Hela cells were lysed with microtubulestabilizing buffer, containing 100 mM PIPES, pH 6.8, 1 mM MgCl2, 2 mM EGTA, 0.5% NP-40, 2 M glycerol, 5 μM PTX and protease inhibitors cocktail (Roche), and the lysate was centrifuged at 15,000 rpm for 15 min. Supernatant containing depolymerized tubulin was carefully collected, whereas pellet (polymerized tubulin) was further dissolved in SDS-lysis buffer (Beyotime, China). Equal amounts of supernatant and dissolved pellet were subjected to immunoblotting analysis as described above using atubulin antibody (Proteintech).

SMILES: C=C1C(=O)N(c2cc(OC)c(OC)c(OC)c2)[C@H]1c1ccc(OC)c(O)c1 [Compound 1, (S)-4-(3-hydroxy-4-methoxyphenyl)-3-methylene-1-(3,4,5-trimethoxyphenyl)azetidin-2-one]
- tubulin assembly (immunofluorescence) (tubulin in SKOV-3 cells): significantly inhibit tubulin aggregation
- IC50 (MDA-MB-231): 0.234 µM
- IC50 (SKOV3): 0.128 µM
- IC50 (Hela): 0.186 µM
- IC50 (A2780): 0.143 µM
- polymerized tubulin (immunoblotting) (tubulin in Hela cells): significantly inhibit tubulin aggregation
